Experimental data taken from patent publication US20050192279A1, “Pyridazinones as antagonists of alpha4 integrins” (priority 2004, published 2005).

What was measured:
DSS induced colitis = experiment: Dextran Sulfate Sodium (DSS) Induced Colitis; type: in vivo, Balb/c female mice and C57Black/6 mice
Description: In Vivo Model for Colitis: Dextran Sulfate Sodium (DSS) Induced Colitis Inflammatory bowel diseases such as ulcerative colitis and Crohn's disease are characterized by diminished intestinal barrier function, apparent inflammatory damage that may include erosive loss of intestinal mucosa, and inflammatory infiltrates in the mucosa and submucosa. […] Among the many possible chemicals used are dextran sulfate sodium (DSS) and trinitrobenzene sulfonic acid (TNBS). The dextran sulfate sodium model of experimental colitis is characterized by a shrinkage of the colon's length, macrosopic inflammatory damage, diarrhea, a discontinuous pattern of mucosal epithelial damage in the distal colon with infiltration of inflammatory cells that include macrophages and neutrophils into the mucosa and submucosa (Blumberg, R. S., Saubermann, L. J., and Strober, W. Animal models of mucosal inflammation and their relation to human inflammatory bowel disease. Current Opinion in Immunology, 11: 648-656, 1999; […]., and Nakaya, R. A novel method of induction of reliable experimental acute and chronic colitis in mice. […] Cooper, […]., and […]. Clinicopathologic study of dextran sulfate sodium experimental murine colitis. Lab Invest., 69: 238-249, 1993; […]., Bajaj-Elliott, M., MacDonald, […]., and Buchler, M. W. Characterization of acute murine dextran sodium sulphate colitis: Cytokine profile and dose dependency. Digestion, 62: 240-248, 2000; […]., Husband, A. J., and Doe, W. F. The inflammatory infiltrate in the acute stage of the dextran sulphate sodium induced colitis: B cell response differs depending on the percentage of DSS used to induce it. BMC Clinical Pathology, 1: 3-13, 2001; and Diaz-Granados, Howe, K., Lu, J, and […]. Dextran sulfate sodium-induced colonic histopathology, but not altered epithelial ion transport, is reduced by inhibition of phosphodiesterase activity. Amer. J. Pathology, 156: 2169-2177, 2000). Balb/c female mice and […]/6 mice were used in these studies. […] When […]/6 mice were used, a solution of tap water containing 4% DSS was used. During the ensuing 7-day period, test animals were administered a preparation of an experimental compound. This material may be administered orally or intraperitoneally or subcutaneously, once or twice daily. At the end of this period, the animals were euthanized and their colons were collected for further analysis. Among the parameters analyzed were the length of the colon starting from the anus to the top of the cecum, the consistency of any stools found within the colon, and the gross macroscopic appearance of the colon. The distal colon between the 1st and the 4th centimeter was removed and placed in 10% neutral buffered formalin for later histological analysis. For the following parameters, colon length, stool consistency and appearance, and macroscopic damage a scoring system is used to describe the changes. […] Thus, […] Histological analyses of tissues consisted of staining paraffin-embedded tissue sections with hematoxylin-eosin dye. Epithelial damage scores were determined as the fraction of the tissue section showing damaged epithelium. […] Statistical analysis performed in Graphpad Prism 4.0 using ANOVA with Dunnet's or Bonferroni's multiple comparison's test.

TNBS induced colitis = experiment: Trinitrobenzenesulfonic acid (TNBS) Induced Colitis, mice; type: in vivo, Balb/c female mice; details: mouse
Description: In Vivo Model: Trinitrobenzenesulfonic acid (TNBS) Induced Colitis
The TNBS model of experimental colitis (Bobin-Dubigeon, C., Collin, X., Grimaud, N., Robert, J-M., Guillaume Le Baut, G., and Petit, J-Y. Effects of tumour necrosis factor-a synthesis inhibitors on rat trinitrobenzene sulphonic acid-induced chronic colitis. Eur. J. Pharmacology, 431: 103-110, 2001), is characterized by shrinkage of the colon, intraperitoneal serosal adhesions, severe wounding and inflammatory damage, diarrhea, a continuous pattern of mucosal epithelial damage in the distal colon with infiltration of inflammatory cells. These symptomatic signs in the above—mentioned models are similar to what occur in human colitis.
Male Wistar rats (200-250 g) are inoculated with 500 microliters of a solution of 10 to 20 mg of TNBS in 30% ethanol delivered intracolonically via catheter or ball-tipped gavage needle to the 8th cm from the anus. When Balb/c female mice (8-12 weeks of age) were used, the inoculation volume was 50 microliters containing 2-3 mg of TNBS in 30% ethanol delivered intracolonically via catheter or ball-tipped gavage needle to the 4th cm from the anus. During the ensuing 7 days, test animals were administered a preparation of an experimental compound. This material may be administered orally, subcutaenously or intraperitoneally, once or twice daily. […] Among the parameters analyzed were the length of the colon starting from the anus to the top of the cecum, the weight of the colon, the consistency of any stools found within the colon, the presence or absence of intraperitoneal adhesions on the serosal surfacr of the intestin, and the gross macroscopic appearance of the colon. The latter is scored for length and severity of inlfammatory damage using a 10 point score. […]
Histological analyses of tissues consisted of staining paraffin-embedded tissue sections with hematoxylin-eosin dye. Epithelial damage scores were determined as the fraction of the tissue section showing damaged epithelium. Scores were determined as follows: 0=no damage; 1=<⅓ damaged, 2=⅓ to <⅔ damaged, 3=>⅔ damaged. […]

[1] = 10 mg/kg sc bid, C57 Black/6 mice
[2] = 30 mg/kg sc bid, C57 Black/6 mice

Question: With `COc1cnn(C)c(=O)c1-c1ccc(C[C@H](NC(=O)c2c(Cl)cccc2Cl)C(=O)O)cc1` [Cpd 17] as the compound, how does the “% Inhibition of Epithelial Damage Score” value (DSS induced colitis; 3 mg/kg sc bid, balb/c mice) read?
Answer: 61.11%

Question: What about the “% Inhibition of Total Macroscopic Score” value (DSS induced colitis; 3 mg/kg sc bid, balb/c mice) of the same compound?
Answer: 32.95%

Question: And the “% Inhibition of Epithelial Damage Score” value (DSS induced colitis; [1])?
Answer: 33.3%

Question: What about the “% Inhibition of Total Macroscopic Score” value (DSS induced colitis; [1]) of the same compound?
Answer: −7.2%

Question: What about the “% Inhibition of Epithelial Damage Score” value (DSS induced colitis; 10 mg/kg sc bid, balb/c mice) of the same compound?
Answer: 56.3%

Question: What about the “% Inhibition of Total Macroscopic Score” value (DSS induced colitis; 10 mg/kg sc bid, balb/c mice) of the same compound?
Answer: 30.6%

Question: And the “% Inhibition of Epithelial Damage Score” value (DSS induced colitis; [2])?
Answer: 50%

Question: And the “% Inhibition of Total Macroscopic Score” value (DSS induced colitis; [2])?
Answer: 11.2%

Question: What about the “% Inhibition of Epithelial Damage Score” value (DSS induced colitis; 30 mg/kg sc bid, balb/c mice) of the same compound?
Answer: 78.1%

Question: And the “% Inhibition of Total Macroscopic Score” value (DSS induced colitis; 30 mg/kg sc bid, balb/c mice)?
Answer: −32.8%

Question: And the “% Inhibition of Total Macroscopic Score” value (TNBS induced colitis; 10 mg/kg sc bid)?
Answer: 21.30%

Question: What about the “% Inhibition of Total Macroscopic Score” value (TNBS induced colitis; 30 mg/kg sc bid) of the same compound?
Answer: 25.5%

Question: What about the “% Inhibition of Total Macroscopic Score” value (TNBS induced colitis; 60 mg/kg sc bid) of the same compound?
Answer: −17%
